Among the data in US6579868B1, “Purine derivatives and adenosine A2 receptor antagonists serving as preventives/remedies for diabetes” (Eisai Co., Ltd., priority 1998, dated 2003) are melting point values, retold here.

Where a name gives a salt, the structure may show the parent alone. Where only a bound is given, the exact number is not on record here.

One may read the melting point as the temperature of the solid-liquid transition. Regarding `CC(C)(O)C#Cc1nc(N)c2nc(-c3cc(F)ccc3F)n(C3CC3)c2n1.Cl`, the melting point is 196 to 198 °C. With `Cl.Cn1c(-c2ccco2)nc2c(N)nc(C#CC3(O)CCCC3)nc21` the figure was 168 to 172 °C; with `CCCn1c(-c2cc(F)cc(F)c2)nc2c(N)nc(C#CC(O)(CC)CC)nc21.Cl`, 183 to 184 °C; with `CCC(O)(C#Cc1nc(N)c2nc(-c3cc(F)ccc3F)n(C3CC3)c2n1)CC.Cl`, 215 to 216 °C. With `CCn1c(-c2cccc(F)c2F)nc2c(N)nc(C#CC(O)(CC)CC)nc21.Cl` the figure was 222 to 224 °C; with `CCCn1c(-c2cccc(F)c2F)nc2c(N)nc(C#CC3(O)CCCC3)nc21.Cl`, 184 to 188 °C. With `Cn1c(-c2cccc(F)c2F)nc2c(N)nc(C#CC3(O)CCC3)nc21` [Example 127, 1-{2-[6-Amino-8-(2,3-difluorophenyl)-9-methyl-9H-2-purinyl]-1-ethynyl}-1-cyclobutanol] the figure was 225 to 229 °C; with `CCn1c(-c2cc(F)cc(F)c2)nc2c(N)nc(C#CC3(O)CCCC3)nc21.Cl`, 217 to 218 °C. Compound `CCn1c(-c2cccc(F)c2)nc2c(N)nc(C#CC(C)(C)O)nc21.Cl` had a melting point of 193 to 196 °C.

For the compound `CCn1c(-c2cc(F)ccc2F)nc2c(N)nc(C#CC(C)(C)O)nc21.Cl`, the melting point lay within 215 to 218 °C. For the compound `CCCn1c(-c2cccc(F)c2F)nc2c(N)nc(C#CC(O)(CC)CC)nc21.Cl`, the melting point was in the range of 187 to 188 °C. The figure for `CCC(O)(C#Cc1nc(N)c2nc(-c3ccccc3F)n(C)c2n1)CC` [Example 149] is 199 to 201 °C; for `COC1CCCCC1(O)C#Cc1nc(N)c2nc(-c3cccc(F)c3)n(C)c2n1` (centres unmarked) [Example 121, 1-{2-[6-Amino-8-(3-fluorophenyl)-9-methyl-9H-2-purinyl]-1-ethynyl}-2-methoxy-1-cyclohexanol] it is 195 to 197 °C.

In turn, `CCC(O)(C#Cc1nc(N)c2nc(-c3cc(F)cc(F)c3)n(C)c2n1)CC.Cl` came in with a melting point of 207 to 210 °C. With `Cn1c(-c2ccccc2F)nc2c(N)nc(C#CC3(O)CCC3)nc21` [Example 146, 1-{2-[6-Amino-8-(2-fluorophenyl)-9-methyl-9H-2-purinyl]-1-ethynyl}-1-cyclobutanol] the figure was 136 to 138 °C. With `CCn1c(-c2cc(F)ccc2F)nc2c(N)nc(C#CC3(O)CCCC3)nc21.Cl` the figure was 191 to 194 °C; with `CCC(O)(C#Cc1nc(N)c2nc(-c3cccc(F)c3)n(C3CC3)c2n1)CC.Cl`, 145 to 148 °C.

In turn, `CCCn1c(-c2cc(F)ccc2F)nc2c(N)nc(C#CC(C)(C)O)nc21.Cl` had a melting point of 194 to 196 °C.

Turning to `CCCn1c(-c2cccc(F)c2)nc2c(N)nc(C#CC(O)(CC)CC)nc21.Cl`, the melting point was in the range of 144 to 147 °C. With `Cl.Nc1nc(C#CC2(O)CCC2)nc2c1nc(-c1cc(F)cc(F)c1)n2C1CC1` the figure was 228 °C. With `Cl.Cn1c(-c2cc(F)ccc2F)nc2c(N)nc(C#CC3(O)CCC3)nc21` the figure was 149 to 152 °C; with `Cn1c(-c2ccccc2F)nc2c(N)nc(C#CC(C)(C)O)nc21` [Example 156, 4-[6-Amino-8-(2-fluorophenyl)-9-methyl-9H-2-purinyl]-2-methyl-3-butyn-2-ol], 198 to 199 °C; with `Cn1c(-c2cc(F)cc(F)c2F)nc2c(N)nc(C#CC3(O)CCC3)nc21` [Example 126, 1-{2-[6-Amino-9-methyl-8-(2,3,5-trifluorophenyl)-9H-2-purinyl]-1-ethynyl}-1-cyclobutanol], 231 to 234 °C. The figure for `Cn1c(-c2cc(F)cc(F)c2F)nc2c(N)nc(C#CC3(O)CCCC3)nc21` [Example 125, 1-{2-[6-Amino-9-methyl-8-(2,3,5-trifluorophenyl)-9H-2-purinyl]-1-ethynyl}-1-cyclopentanol] is 214 to 217 °C.

For the compound `CCCn1c(-c2cc(F)ccc2F)nc2c(N)nc(C#CC(O)(CC)CC)nc21.Cl`, the melting point lay in the range of 164 to 165 °C. The compound `Cl.Nc1nc(C#CC2(O)CCCC2)nc2c1nc(-c1cc(F)cc(F)c1)n2C1CC1` displayed a melting point of 265 to 266 °C.

The compound `Cl.Cn1c(-c2cc(F)ccc2F)nc2c(N)nc(C#CC(C)(C)O)nc21` registered a melting point of 177 to 178 °C.

`CCCn1c(-c2cc(F)cc(F)c2)nc2c(N)nc(C#CC(C)(C)O)nc21.Cl` gave a melting point of 148 to 150 °C. The figure for `Cl.Cn1c(-c2ccco2)nc2c(N)nc(C#CCCC3CCCCC3)nc21` is 165 to 169 °C. The figure for `CCCn1c(-c2cc(F)cc(F)c2)nc2c(N)nc(C#CC3(O)CCCC3)nc21.Cl` is 210 to 211 °C; for `CCn1c(-c2cc(F)ccc2F)nc2c(N)nc(C#CC(O)(CC)CC)nc21.Cl` it is 163 to 166 °C; for `Cl.Cn1c(-c2cccc(F)c2)nc2c(N)nc(/C=C/C(C)(C)O)nc21` it is > 290 °C. The figure for `CCn1c(-c2cc(F)ccc2F)nc2c(N)nc(C#CC3(O)CCC3)nc21.Cl` is 141 to 143 °C. `CCn1c(-c2cccc(F)c2)nc2c(N)nc(C#CC(O)(CC)CC)nc21.Cl` registered a melting point of 150 to 153 °C. The figure for `CCCn1c(-c2cccc(F)c2F)nc2c(N)nc(C#CC(C)(C)O)nc21.Cl` is 230 to 233 °C. The figure for `CN(C)c1ccc(-n2c(-c3cccc(F)c3)nc3c(N)nc(C#CC4(O)CCCCC4)nc32)cc1` (as salt: hydrochloride) [Example 3, 1-{2-[6-Amino-9-[4-(dimetylamino)phenyl]-8-(3-fluorophenyl)-9H-2-purinyl]-1-ethynyl}-1-cyclohexanol Dihydrochloride] is 255 to 260 °C; for `Cl.Cn1c(-c2cccc(F)c2)nc2c(N)nc(C#CC3(O)CCC(c4ccccc4)CC3)nc21` (centres unmarked) it is 247 to 249 °C; for `CCCn1c(-c2cccc(F)c2F)nc2c(N)nc(C#CC3(O)CCC3)nc21.Cl` it is 124 to 127 °C. With `CCCCC#Cc1nc(N)c2nc(-c3ccco3)n(C)c2n1.Cl` the figure was 178 to 181 °C. `Cl.Nc1nc(C#CC2(O)CCCCC2)nc2c1nc(-c1cccc(F)c1)n2C1CCCC1` gave a melting point of 196 to 200 °C. The figure for `Cl.Cn1c(-c2ccco2)nc2c(N)nc(C#CC3CCCCC3)nc21` is 155 to 160 °C; for `Cl.Nc1nc(C#CC2(O)CCCC2)nc2c1nc(-c1cccc(F)c1)n2C1CC1` it is 220 to 223 °C; for `Cn1c(-c2cccc(F)c2)nc2c(N)nc(C#CC3(O)C=CCC3)nc21` (centres unmarked) [Example 122, 1-{2-[6-Amino-8-(3-fluorophenyl)-9-methyl-9H-2-purinyl]-1-ethynyl}-2-cyclopenten-1-ol] it is 191 to 193 °C. Compound `CCn1c(-c2cc(F)cc(F)c2)nc2c(N)nc(C#CC3(O)CCC3)nc21.Cl` yielded a melting point of 234 to 235 °C.

Consider `CC(C)C(O)C#Cc1nc(N)c2nc(-c3cccc(F)c3)n(C)c2n1.Cl` (centres unmarked), for which the melting point is 170 to 173 °C.

`Cn1c(-c2ccccc2F)nc2c(N)nc(C#CC3(O)CCCC3)nc21` [Example 147, 1-{2-[6-Amino-8-(2-fluorophenyl)-9-methyl-9H-2-purinyl]-1-ethynyl}-1-cyclopentanol] registered a melting point of 166 to 168 °C. The figure for `CCn1c(-c2cccc(F)c2F)nc2c(N)nc(C#CC(C)(C)O)nc21.Cl` is 213 to 215 °C; for `CCn1c(-c2cc(F)cc(F)c2)nc2c(N)nc(C#CC(C)(C)O)nc21.Cl` it is 233 to 234 °C; for `CCCn1c(-c2cc(F)ccc2F)nc2c(N)nc(C#CC3(O)CCCC3)nc21.Cl` it is 232 to 234 °C. The figure for `CC(C)(O)C#Cc1nc(N)c2nc(-c3cc(F)cc(F)c3)n(C3CC3)c2n1.Cl` is 245 °C; for `Cl.Cn1c(-c2cccc(F)c2)nc2c(N)nc(/C=C/C3(O)CCCCC3)nc21` it is 222 to 225 °C.

Regarding `Cl.Cn1c(-c2cc(F)cc(F)c2)nc2c(N)nc(C#CC3(O)CCCC3)nc21`, the melting point lay in the range of 255 to 258 °C. The figure for `CCC(O)C#Cc1nc(N)c2nc(-c3cccc(F)c3)n(C)c2n1.Cl` (centres unmarked) is 171 to 175 °C; for `Cl.Cn1c(-c2cc(F)cc(F)c2)nc2c(N)nc(C#CC(C)(C)O)nc21` it is 237 to 238 °C. With `COC1CCCCC1(O)C#Cc1nc(N)c2nc(-c3cccc(F)c3)n(C)c2n1` (centres unmarked) [Example 120, 1-{2-[6-Amino-8-(3-fluorophenyl)-9-methyl-9H-2-purinyl}-1-ethynyl}-2-methoxy-1-cyclohexanol] the figure was 281 to 283 °C; with `CCn1c(-c2cccc(F)c2F)nc2c(N)nc(C#CC3(O)CCCC3)nc21.Cl`, 138 to 140 °C; with `Cl.Nc1nc(C#CC2(O)CCCC2)nc2c1nc(-c1cc(F)ccc1F)n2C1CC1`, 230 to 232 °C.

With `CC(C)C(C)(O)C#Cc1nc(N)c2nc(-c3cccc(F)c3)n(C)c2n1.Cl` (centres unmarked), the melting point is 191 to 192 °C.

`Cl.Nc1nc(C#CC2(O)CCC2)nc2c1nc(-c1cc(F)ccc1F)n2C1CC1` returned a melting point of 161 to 164 °C. The figure for `CC(C)(O)C#Cc1nc(N)c2nc(-c3cccc(F)c3)n(C3CC3)c2n1.Cl` is 143 to 145 °C. With `Cl.Cn1c(-c2cccc(F)c2)nc2c(N)nc(C#CC(C)(O)C(C)(C)C)nc21` (centres unmarked) the figure was 193 to 194 °C; with `CCC(O)(C#Cc1nc(N)c2nc(-c3cc(F)cc(F)c3)n(C3CC3)c2n1)CC.Cl`, 225 °C. The figure for `CCC(O)(C#Cc1nc(N)c2nc(-c3cc(F)ccc3F)n(C)c2n1)CC.Cl` is 147 to 148 °C. In turn, `CCn1c(-c2cccc(F)c2)nc2c(N)nc(/C=C/C3(O)CCC3)nc21.Cl` returned a melting point of 178 to 180 °C.

`Cl.Nc1nc(C#CC2(O)CCC2)nc2c1nc(-c1cccc(F)c1)n2C1CC1`: the melting point fell in the range of 167 to 170 °C.

For the compound `Cl.Cn1c(-c2ccco2)nc2c(N)nc(C#CCCO)nc21`, the melting point was in the range of 161 to 164 °C. The figure for `CCC(O)(C#Cc1nc(N)c2nc(-c3ccc(C)o3)n(C)c2n1)CC.Cl` is 229 to 230 °C; for `CCCn1c(-c2cc(F)ccc2F)nc2c(N)nc(C#CC3(O)CCC3)nc21.Cl` it is 225 to 226 °C.
